Here are results for five molecules from article PMC6761534 (Antimicrobial Agents and Chemotherapy, 2019).

A value given as a limit tells only on which side of the number the result lay.

Common to all, as to assay type: cell-based, Mycobacterium tuberculosis
Test [1] has as its system M. tuberculosis c subunit mutant strain A63P.
Test [2] concerns M. tuberculosis c subunit mutant strain I66M.
For test [3], the system named is M. tuberculosis c subunit mutant strain E61D.
For test [4], the system named is M. tuberculosis c subunit mutant strain D28A.
Test [5] deals with M. tuberculosis c subunit mutant strain D28G.
Test [6] has as its system M. tuberculosis H37Rv.
In test [7] the test system is M. tuberculosis c subunit mutant strain D28V.

For the molecule `COc1cc([C@](O)(CCN(C)C)[C@@H](c2cc3cc(Br)ccc3nc2OC)c2cc(OC)nc(OC)c2OC)cc(OC)n1` [TBAJ-876], the “MIC90 fold increase in M. tuberculosis c subunit mutant strain A63P” value in test [1] was found to be 48 fold. For the same molecule, in test [2], the “MIC90 fold increase in M. tuberculosis c subunit mutant strain I66M” value came out at 59 fold. In addition, in test [3], the “MIC90 fold increase in M. tuberculosis c subunit mutant strain E61D” value turned out to be 100 fold. Besides, in test [4], the “MIC90 fold increase in M. tuberculosis c subunit mutant strain D28A” value amounted to 140 fold. The “MIC90 fold increase in M. tuberculosis c subunit mutant strain D28G” value in test [5] is recorded as 104 fold. In test [6], the Mutation frequency is 4.23 × 10^−9 and the “No. of atpE mutants/total no. of mutants isolated” value is 5/5. In addition, the “MIC90 fold increase in M. tuberculosis c subunit mutant strain D28V” value in test [7] was found to be 132 fold.

On to `COc1nc2ccc(Br)cc2cc1[C@@H](c1ccccc1)[C@@](O)(CCN(C)C)c1cccc2ccccc12` [BDQ, Bedaquiline, reference compound], for which, in test [1], the “MIC90 fold increase in M. tuberculosis c subunit mutant strain A63P” value is above 400 fold. Further, the “MIC90 fold increase in M. tuberculosis c subunit mutant strain I66M” value in test [2] is 262 fold. The “MIC90 fold increase in M. tuberculosis c subunit mutant strain E61D” value in test [3] is 312 fold. Moreover, in test [4], the “MIC90 fold increase in M. tuberculosis c subunit mutant strain D28A” value was above 400 fold. Besides, the “MIC90 fold increase in M. tuberculosis c subunit mutant strain D28G” value in test [5] is listed as above 400 fold. The “MIC90 fold increase in M. tuberculosis c subunit mutant strain D28V” value in test [7] is recorded as above 400 fold.

For the molecule `COc1cc([C@](O)(CCN(C)C)[C@@H](c2cc3cc(Br)ccc3nc2OC)c2cccc3c2OCCO3)cc(OC)n1` [compound 5316], the “MIC90 fold increase in M. tuberculosis c subunit mutant strain A63P” value in test [1] was 72 fold. The “MIC90 fold increase in M. tuberculosis c subunit mutant strain I66M” value in test [2] is 42 fold. Further, the “MIC90 fold increase in M. tuberculosis c subunit mutant strain E61D” value in test [3] was found to be 105 fold. For the same molecule, in test [4], the “MIC90 fold increase in M. tuberculosis c subunit mutant strain D28A” value came out at 200 fold. In test [5], the “MIC90 fold increase in M. tuberculosis c subunit mutant strain D28G” value was 200 fold. In test [6], the Mutation frequency is recorded as 6.36 × 10^−9 and the “No. of atpE mutants/total no. of mutants isolated” value is 7/7. For the same molecule, the “MIC90 fold increase in M. tuberculosis c subunit mutant strain D28V” value in test [7] is on record as 200 fold.

Regarding `COc1cc([C@](O)(CCN(C)C)[C@H](c2cc(OC(C)C)cnc2OC)c2cc3cc(Br)ccc3nc2OC)cc(OC)n1` [compound 5366], in test [1], the “MIC90 fold increase in M. tuberculosis c subunit mutant strain A63P” value came out at 50 fold. For the same molecule, the “MIC90 fold increase in M. tuberculosis c subunit mutant strain I66M” value in test [2] is 50 fold. Also, the “MIC90 fold increase in M. tuberculosis c subunit mutant strain E61D” value in test [3] is given as 45 fold. In addition, the “MIC90 fold increase in M. tuberculosis c subunit mutant strain D28A” value in test [4] was 333 fold. Besides, the “MIC90 fold increase in M. tuberculosis c subunit mutant strain D28G” value in test [5] is 300 fold. For the same molecule, in test [6], the Mutation frequency is recorded as 2.54 × 10^−8 and the “No. of atpE mutants/total no. of mutants isolated” value was 28/28. Moreover, the “MIC90 fold increase in M. tuberculosis c subunit mutant strain D28V” value in test [7] is on record as 250 fold.

For `COc1cc([C@](O)(CCN(C)C)[C@@H](c2cc3cc(Br)ccc3nc2OC)c2ccnc(OC)c2OC)cc(OC)n1` [compound 5307], the “MIC90 fold increase in M. tuberculosis c subunit mutant strain A63P” value in test [1] came to 150 fold. In addition, in test [2], the “MIC90 fold increase in M. tuberculosis c subunit mutant strain I66M” value stood at 87 fold. In test [3], the “MIC90 fold increase in M. tuberculosis c subunit mutant strain E61D” value was determined as 100 fold. Moreover, the “MIC90 fold increase in M. tuberculosis c subunit mutant strain D28A” value in test [4] is recorded as 357 fold. Also, the “MIC90 fold increase in M. tuberculosis c subunit mutant strain D28G” value in test [5] is given as 235 fold. Moreover, in test [6], the Mutation frequency was 3.00 × 10^−8 and the “No. of atpE mutants/total no. of mutants isolated” value is given as 33/34. The “MIC90 fold increase in M. tuberculosis c subunit mutant strain D28V” value in test [7] is on record as 360 fold.
